# Data published in US7803823B2, “2-amino-4,5-trisubstituted thiazolyl derivatives” (Janssen Pharmaceutica NV, priority 2001, dated 2010).
# What was measured:
# IL-12p40 production = test: In vitro inhibition of IL-12p40 production in human blood (LPS-stimulated whole blood, sandwich ELISA); assay type: cell-based; conditions: lipopolysaccharide 100 ng/ml, 24 hours, read-out: % inhib. IL-12 (p40); for inhibition at 1 µM: test dose 1 × 10^−6 M
# Protocol: (§1) Peripheral blood from healthy male donors was drawn into heparinized syringes (12.5 U heparin/ml). Blood samples were three-fold diluted in RMPI 1640 medium (Life Technologies, Belgium) supplemented with 2 mM L-glutamine, 100 U/ml penicillin and 100 μg/ml streptomycin, and 300 μl fractions were distributed in 24-well multidisc plates (Nunc, Roskilde, Denmark). Blood samples were preincubated (60 minutes at 37° C.) in a humidified 6% CO2-atmosphere with 100 μl of drug solvent (final concentration 0.02% dimethylsulfoxide in RPMI 1640) or with 100 μl of an appropriate dose of test compound before being stimulated by the addition of 100 μl of lipopolysaccharide at a final concentration of 100 ng/ml. After 24 hours, cell-free supernatant fluids were collected by centrifugation and stored at −20° C. until tested for the presence of IL-12p40.
# (§2) Cytokine protein concentrations were determined by sandwich ELISA as described in Van Wauwe et al. (1996, Inflamm Res, 45, 357-363). Murine monoclonals used as capture antibodies to human cytokines were obtained from R&D Systems (Abingdon, United Kingdom) and code named MAB210 and MAB611 for TNF-α and IL-12 respectively. Biotinylated goat polyclonal antibodies used to detect human cytokines were from R&D Systems (BAF210, BAF219). Cytokine levels were calculated from standard curves using recombinant cytokines supplied by R&D Systems.
# TNF-α production = test: In vitro inhibition of TNF-α production in human blood (LPS-stimulated whole blood, sandwich ELISA); assay type: cell-based; conditions: lipopolysaccharide 100 ng/ml, 6 hours, read-out: % inhib. TNF-α
# Protocol: as §1, with “After 6” for “After 24”, “of TNF-α.” for “of IL-12p40.”
# as §2
melting point,Compound,inhibition at 1 µM (IL-12p40 production),inhibition at 0.1 µM (IL-12p40 production; test dose 1 × 10^−7 M),inhibition at 1 µM (TNF-α production; test dose 1 × 10^−6 M),inhibition at 0.1 µM (TNF-α production; test dose 1 × 10^−7 M)
208 to 210 °C,Fc1sc(Nc2cccc(C(F)(F)F)c2)nc1-c1cccnc1 [Compound 1],54%,56%,60%,58%
,CC(O)c1sc(Nc2cccc(C(F)(F)F)c2)nc1-c1cccnc1 (stereo not drawn) [Compound 14],52%,,,
